From publication PMC11239005, “Preclinical studies of RA475, a guanidine-substituted spirocyclic candidate RPN13/ADRM1 inhibitor for treatment of ovarian cancer” (PLOS ONE, 2024) come the findings set out here.

Like-named read-outs stand apart in the source and are kept apart here. A value given as a limit tells only on which side of the number the result lay.

The subject of one data set is 4UbFL in ES2 cells. The data set can be described thus: 4UbFL reporter assay, ES2. The data set is classed as cell-based, human. Particulars: 4 h; for 4UbFL stabilization, fold over DMSO: ES2, 1.25 μM; for 4UbFL bioluminescence, luminometer: ES2 stably expressing 4UbFL. As for the experimental part: Sub-confluent cultures of cells were transfected with 4UbFL plasmid using TransIT 2020 reagent (Mirus Bio). Cells were seeded at 10,000 cells/well in 96-well plates 48 h post transfection, and incubated with compounds or vehicle (DMSO) at the doses and for the times indicated. Luciferase activity in cell lysate was determined with a luciferase assay kit (Promega) according to the manufacturer’s instructions. Bioluminescence was measured using a Glomax Multidetection system (Promega).
Fig 3 Impact of RA475 on proteasome function. […] Actin was used as loading control. […] C) 4T1 and HCC1806 cells stably expressing 4UbFL were treated with compounds at indicated doses for 4 h and imaged by IVIS200 after the addition of luciferin substrate (50 μL, 7mg/mL in PBS). D) Sub-confluent cultures of ES2 cells stably expressing 4UbFL were seeded at 10,000 cells/well in 96-well microtiter plates. At 18 h post transfection, cells were treated with compounds or vehicle (DMSO) at the doses indicated. After a 4 h incubation, the cells were lysed and the luciferase activity in each cell lysate was determined with a luciferase assay kit (Promega) according to the manufacturer’s instructions. Bioluminescence was measured by using a luminometer (Glomax Multidetection system, Promega) E) A patch was shaved of hair on one leg of CD-1 mice, and 10 μg 4UbFL plasmid in 20 μL of PBS was injected into the quadriceps femoralis muscle followed immediately by injection of the 2 Needle Array to 5 mm depth encompassing the injection site and square wave electroporation (ElectroSquarePorator 833, BTX-2 Needle array 5mm gap, Harvard apparatus) delivered as eight pulses at 106V for 20 ms with 200 ms intervals. One day post electroporation, mice were anesthetized with isoflurane, injected IP with luciferin (0.3 mg in 100 μL water) and optical imaging was performed to determine basal level luciferase expression. Images were acquired for 10 min with a Xenogen IVIS 200 (Caliper, Hopkinton, MA). Equally sized areas were analyzed using Living Image 2.20 software. Mice were imaged weekly during treatment. Mice were randomized into three groups (n = 5) and treated IP once with Vehicle (25% (w/v) β-Hydroxypropylcyclodextrin in water, Sigma Aldrich) alone, RA475 (40 mg/Kg) or Up284 (40 mg/Kg) and mice were imaged again at 4 h, 24 h, 48 h, 72 h and 96 h later. F) Same as in E but RA475 (40mg/Kg) and ixazomib (10mg/Kg, recommended dose) were delivered orally. Thick line indicates median measurements. P-values are results based on Wilcoxon rank sum test for pairwise comparisons to vehicle cohort at each time point with multiplicity adjustment.
Firefly Luciferase (FL) is a stable protein in cells, but when fused with four molecules of ubiquitin (4Ub) it is targeted for rapid degradation by proteasomes. […]

The next data set relates to TC1. The data set can be described thus: MTT cytotoxicity assay, TC1. The data set is classed as cell-based. The note with it: TC-1, TC1, 72 h. As for the experimental part: (§1) All cell lines were obtained from the American Type Culture Collection (ATCC) and cultured in the specified medium supplemented with 10% fetal bovine serum, 100 IU/mL penicillin, and 100 μg/mL streptomycin at 37°C in a humidified 5% CO2/95% air incubator. Synthesis of new compounds is described in S1 File, and >95% purity of RA475, Up284 and its analogs were confirmed by NMR and MS. To assess drug cytotoxicity, cells were seeded at 2,500 cells/well (10,000 cells/well for MM lines) in 100 μL medium in 96-well plate as triplicates and after 24 h treated with compounds for a further 72 h. To assess cytotoxicity, the cells were incubated for 2 h at 37°C according to the manufacturer’s protocol with the Thiazolyl Blue Tetrazolium Bromide (20 μL/well of 5 mg/mL stock solution in water) (Sigma, M5655) and A570 measured using a Benchmark Plus microplate spectrophotometer (BIO-RAD). IC50 was estimated using Graphpad Prism 7 software.

In another data set the test system is A549. The data set can be described thus: MTT cytotoxicity assay, A549. The data set is classed as cell-based. The note with it: Homo sapiens, A549, 72 h. As for the experimental part:
as §1

The subject of the next data set is MDA-MB-468. As to the kind of experiment: MTT cytotoxicity assay, MDA-MB-468. The data set is classed as cell-based. The note with it: Homo sapiens, MDA-MB-468, 72 h. As for the experimental part:
as §1

Another data set deals with SKMEL2. The data set can be described thus: MTT cytotoxicity assay, SKMEL2. The data set is classed as cell-based. The note with it: Homo sapiens. As for the experimental part: as §1
Another data set relates to HCT116. As to the kind of experiment: MTT cytotoxicity assay, HCT116. The data set is classed as cell-based. The note with it: Homo sapiens, HCT-116, HCT116, 72 h. As for the experimental part:
as §1

Another data set deals with PEA1 cells. The data set can be described thus: MTT cytotoxicity assay, PEA1. The data set is classed as cell-based, human. Particulars: for IC50: Homo sapiens, PEA1, 72 h. As for the experimental part: as §1
Modifications of Up284 were sought to improve its drug-like properties without significant compromise of its activity in vivo, and several new compounds were synthesized (S1 File). Based on our prior studies of its pharmacophore, the central ring nitrogen was the most logical for addition of charged moieties, including RA475 and RA484. We also examined a change to either 3,4 spiro rings (RA477, RA479), or addition of 3-Fluoro substitutions (RA482) (S1 File). Our focus is developing iRPN13 to treat ovarian cancer resistant to standard of care drug regimens.
A wash-out experiment was performed to assess reversibility of the toxicity. PEA1 cells were treated with RA475 for 1 h before the medium was replaced with fresh culture medium, and the cells were then allowed to grow for another 71 hours (PEA1-WO). In parallel, PEA1 cells were incubated with RA475 continuously for 72 h. […] Possible reasons include slow uptake of RA475, reversible binding and neutralization by antioxidants in the medium.
(§2) To study the effect of RA475 in combination with approved therapeutics (DNA damaging agents or radiation) an MTT assay was performed using various concentrations of both drugs. Briefly PEA1 and OVCAR3 cells were each treated with drug combination (RA475 plus cisplatin) for 72 h in a checker board analysis and cell viability was measured using MTT assay. The data were analyzed and plotted using the Synergy Finder web application.

A further data set has as its system MCF7. As to the kind of experiment: MTT cytotoxicity assay, MCF7. The data set is classed as cell-based. The note with it: Homo sapiens, MCF7, 72 h. As for the experimental part: as §1
The test system of the next data set is B6-Ova. As to the kind of experiment: MTT cytotoxicity assay, B6-Ova. The note with it: 72 h. The data set is classed as cell-based. As for the experimental part:
as §1

A further data set concerns TC1-Ova. As to the kind of experiment: MTT cytotoxicity assay, TC1-Ova. The note with it: 72 h. The data set is classed as cell-based. As for the experimental part: as §1
A further data set concerns HepG2. The data set can be described thus: MTT cytotoxicity assay, HepG2. The data set is classed as cell-based. The note with it: Homo sapiens, HepG2, 72 h. As for the experimental part: as §1
In another data set the test system is OVCAR3 cells. As to the kind of experiment: MTT cytotoxicity assay, OVCAR3. The data set is classed as cell-based, human. The note with it: for IC50: Homo sapiens, OVCAR-3, OVCAR3, 72 h. As for the experimental part: as §1, §2

Regarding `Cl.Cl.N#Cc1ccc(/C=C2/C(=O)/C(=C/c3ccc(C#N)cc3)C23CCN(C(=N)N)CC3)cc1` [RA475, 1,3-bis((E)-4-cyanobenzylidene)-2-oxo-7-azaspiro[3.5]nonane-7-carboximidamide dihydrochloride], in the data set on 4UbFL in ES2 cells, the “4UbFL stabilization, fold over DMSO” value was above 20 fold. Besides, the “4UbFL bioluminescence, luminometer” value in the data set on 4UbFL in ES2 cells was “dose-dependent increase in bioluminescence”. Moreover, the IC50 with TC1 is 217 nM; with A549 it was 219 nM; in the data set on MDA-MB-468, 292 nM; in the data set with SKMEL2 (SK-MEL-2, 72 h) it was 156 nM; in the data set with HCT116 it was 430 nM; with PEA1 cells, 406 nM. Also, the IC50 in the data set on MCF7 amounted to 742 nM; in the data set with B6-Ova it was 70 nM; in the data set on TC1-Ova, 150 nM; with HepG2 it was 241 nM; in the data set on OVCAR3 cells it was 190 nM. The “cytotoxic effect after wash-out” value in the data set on PEA1 cells (PEA1, RA475 1 h then fresh medium 71 h vs continuous 72 h) was “reduced its cytotoxic effect”. Besides, the “synergy with cisplatin for cytotoxicity” value is on record as “mild synergy” in the data set with PEA1 cells (PEA1, checker board, 72 h, Synergy Finder) and “mild synergy” with OVCAR3 cells (OVCAR3, checker board, 72 h, Synergy Finder).

With `N#Cc1ccc(/C=C2/C(=O)/C(=C/c3ccc(C#N)cc3)C23CCNCC3)cc1` [Up284, reference compound], the “4UbFL stabilization, fold over DMSO” value in the data set with 4UbFL in ES2 cells is above 20 fold. Also, the “4UbFL bioluminescence, luminometer” value in the data set with 4UbFL in ES2 cells was “dose-dependent increase in bioluminescence”. Further, the IC50 in the data set on TC1 was determined as 140 nM; in the data set on A549 it was 90 nM; with MDA-MB-468, 72 nM; in the data set on SKMEL2 (SK-MEL-2, SKMEL2, 72 h, MTT, read-out: IC50) it was 70 nM; in the data set on HCT116, 110 nM; in the data set with PEA1 cells, 219 nM. Besides, the IC50 with MCF7 amounted to 690 nM; with B6-Ova, 50 nM; in the data set on TC1-Ova, 90 nM; in the data set with HepG2 it was 90 nM; in the data set on OVCAR3 cells, 50 nM.
